Source: PubChem BioAssay AID449745 (Broad Institute, 2010)
Records with an inconclusive call do not appear. Activity calls are given as the source filed them. How the calls were made is not given here.

These compounds were tested against Zinc finger protein mex-5 (Caenorhabditis elegans) (UniProt Q9XUB2) (assay: MEX-5 RNA-binding inhibition confirmation – biochemical, C. elegans, fluorescence polarization, dose retest (AID 449745;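 further: potency is for blocking Mex-5 binding to labeled TCR2 RNA like unlabeled competitor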)). Settings: Mex-5 / TCR-2 RNA binding.
Chain of Zinc finger protein mex-5 (Caenorhabditis elegans) (Q9XUB2 whole entry, looked up): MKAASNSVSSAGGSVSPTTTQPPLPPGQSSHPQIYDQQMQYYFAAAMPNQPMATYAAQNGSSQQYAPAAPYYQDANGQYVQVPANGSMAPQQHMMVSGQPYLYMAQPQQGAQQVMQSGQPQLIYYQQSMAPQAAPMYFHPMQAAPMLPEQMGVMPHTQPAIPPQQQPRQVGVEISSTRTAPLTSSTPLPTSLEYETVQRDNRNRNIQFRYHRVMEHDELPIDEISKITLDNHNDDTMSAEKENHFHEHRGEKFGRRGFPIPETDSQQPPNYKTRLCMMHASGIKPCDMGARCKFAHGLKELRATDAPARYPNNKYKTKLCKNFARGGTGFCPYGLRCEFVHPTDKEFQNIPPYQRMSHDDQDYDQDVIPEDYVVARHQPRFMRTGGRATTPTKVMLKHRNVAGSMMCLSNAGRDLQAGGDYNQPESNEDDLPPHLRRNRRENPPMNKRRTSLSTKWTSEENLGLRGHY

Row | SMILES | AC50
1 | CC(C)C1Nc2ccc(C(=O)O)cc2C2C=CCC21 (configuration not stated) | > 38 µM (inactive)
2 | CCn1c(C)c(C(C)=O)c(N2CCN(c3ccccc3)CC2)nc1=S | > 38 µM (inactive)
3 | N=c1c(C(=O)NCC2CCCO2)cc2c(=O)n3ccccc3nc2n1Cc1ccc(Cl)cc1 (configuration not stated) | > 38 µM (inactive)
4 | CC1=C(C#N)c2nc(N)c(C#N)c(C)c2/C1=C\c1ccc(-c2ccccc2C(=O)O)o1 | 17.9 µM
5 | O=C(O)c1cc(O)c2c(c1)[C@@H]([C@H]1c3cc(C(=O)O)cc(O)c3C(=O)c3c(O[C@@H]4O[C@H](CO)[C@@H](O)[C@H](O)[C@H]4O)cccc31)c1cccc(OC3O[C@H](CO)[C@@H](O)[C@H](O)[C@H]3O)c1C2=O (some centres not stated) | 1.52 µM
6 | Nc1ccc(N(CCO)CCO)cc1 | > 38 µM (inactive)
7 | Cc1ccc(O)c(C(=O)c2cc(C#N)c(=O)n(-c3nccs3)c2)c1 | 14.2 µM
8 | CC(=Nc1ccc(C)cc1C)c1sc2ccccc2c1O | 37.2 µM
9 | CCN1C/C(=C/c2ccc(OC)c(O)c2)C(=O)/C(=C/c2ccc(OC)c(O)c2)C1 | > 38 µM (inactive)
10 | O=[N+]([O-])c1ccc(NCc2ccccc2)c2nonc12 | 0.744 µM
11 | CCn1c(CSc2nnc3ccccn23)nc2cc(C(=O)O)ccc21 | 33.9 µM
12 | CCOC(=O)c1c(/N=C/c2ccc(OC)cc2O)sc2c1CCN(C)C2 | > 38 µM (inactive)
13 | Cn1c(=O)c(Nc2ccc(Cl)cc2)c2c3c(cccc31)C(=O)c1ccccc1-2 | 1.63 µM
14 | CC(C(=O)Nc1ccc(C(=O)O)c(O)c1)N1C(=O)/C(=C\c2ccco2)SC1=S (configuration not stated) | 19 µM
15 | O=[N+]([O-])c1ccc(O)c(C=Nc2ccc3c(c2)OCCO3)c1 | > 38 µM (inactive)
16 | CC(C)(C)OC(=O)NCCCC1=CC2=CC(=O)C(C)(O)C(=O)C2=CO1 (configuration not stated) | 19.3 µM
17 | CN1C(=O)C(=Cc2sc(=O)n(-c3ccccc3)c2N(C)C)C(=O)N(C)C1=O | > 38 µM (inactive)
18 | CC1(C)CC(=O)C2=C(C1)OC(N)=C(C#N)C2c1ccccc1[N+](=O)[O-] (configuration not stated) | > 38 µM (inactive)
19 | O=C(CCCN1C(=O)/C(=C/c2ccccc2Cl)SC1=S)NNC(=O)c1ccc(Cl)cc1 | > 38 µM (inactive)
20 | COC(=O)COc1ccc(C2Nc3c(Cl)ccc(C(=O)O)c3C3C=CCC32)cc1 (configuration not stated) | > 38 µM (inactive)
21 | CCCN1CCN(S(=O)(=O)c2cn(C)nc2C)CC1 | 39.9 µM
22 | CC(C)C[C@H](NC(=O)C1CC(=O)N(c2ccc3c(c2)OCO3)C1)C(=O)NC1CCCC1 (some centres not stated) | 29.2 µM
23 | Cn1c(O)c(/C=N/NC(=O)c2cc3ccccc3cc2O)c2ccccc21 | 5.01 µM
24 | Cc1nc2ccccc2n1/N=C/c1ccc([N+](=O)[O-])s1 | > 38 µM (inactive)
25 | CCc1ccc(N2C(=O)NC(=O)/C(=C/c3cccn3CCOc3ccc(C(C)CC)cc3)C2=O)cc1 (configuration not stated) | > 38 µM (inactive)

Row | SMILES | AC50
26 | Cc1ccc(S(=O)(=O)N/N=C/c2ccc(O)c(O)c2)cc1[N+](=O)[O-] | 27 µM
27 | COc1ccccc1CN1CC(C(=O)NCCN(C)CCc2ccccc2)CCC1=O (configuration not stated) | > 38 µM (inactive)
28 | COC/C=C/C1=CC2=CC(=O)C(C)(O)C(=O)C2=CO1 (configuration not stated) | 13 µM
29 | CN1CC=C2C(C#N)=C(N)C(C#N)(C#N)[C@H](c3ccoc3)[C@H]2C1 | 32.4 µM
30 | O=C(O)CCCC(=O)NNc1nc(-c2ccccc2)c2cc(Cl)ccc2n1 | 13.3 µM
31 | O=C(CN1C(=O)/C(=C/c2cccc(Br)c2)SC1=S)NC1=NCCS1 | > 38 µM (inactive)
32 | Cc1[nH][nH]c(=O)c1C(c1ccc(O)c([N+](=O)[O-])c1)c1c(C)[nH][nH]c1=O | 8.52 µM
33 | N=c1c(S(=O)(=O)c2ccc(Cl)cc2)cc2c(=O)n3ccccc3nc2n1CC1CCCO1 (configuration not stated) | > 38 µM (inactive)
34 | O=C(c1nc2ccc(Cl)cn2c1CN1CCC[C@H]1CO)N1CCCCCCC1 | 27.3 µM
35 | Cc1ccc(C2C(C(=O)c3cccs3)=C(O)C(=O)N2c2nnc(C)s2)cc1 (configuration not stated) | 2.43 µM
36 | O=C(O[C@@H]1OC2COC(=O)c3cc(O)c(O)c(O)c3-c3c(cc(O)c(O)c3O)C(=O)O[C@@H]([C@H]1O)[C@@H]2O)c1cc(O)c(O)c(O)c1 | 5.19 µM
37 | Cc1nc2ccc3nc(NC(=O)c4ccc5c(c4)OCCO5)sc3c2s1 | > 38 µM (inactive)
38 | O=C(c1nc2ccc(Cl)cn2c1CN1CCCC1)N1CCc2ccccc2C1 | 23.7 µM
39 | COc1ccc(N=C2S/C(=C\c3cc(C)n(C)c3C)C(=O)N2C)cc1 | > 38 µM (inactive)
40 | CCNC(=S)N/N=C/c1sc(N2CCCCC2)nc1-c1cccs1 | 10 µM
41 | Cc1ccc(/C=C2/NC(=O)N(Cc3ccccc3)C2=O)s1 | > 38 µM (inactive)
42 | O=c1[nH]n2c(=O)c3c([nH]c2c1N=Nc1ccccc1)CCC3 | < 0.3 µM
43 | Cc1ccc(C(=O)N/N=C\c2cc(Br)c(Br)o2)cn1 | 39.7 µM
44 | O=c1[nH]c(-[n+]2ccccc2)c(/C=N/NC([S-])=Nc2ccccc2)s1 | 15.1 µM
45 | O=C1C(Cl)=C(NC(=O)c2ccccc2)C(=O)C(Cl)=C1NC(=O)c1ccccc1 | < 0.3 µM
46 | CC(=O)Nc1ccc(S(=O)(=O)NNC(=O)C(=O)NNc2ccccn2)cc1 | 0.621 µM
47 | CC(=O)Nc1ccc(S(=O)(=O)NCC(=O)NNC(=O)c2csc(N3CCOCC3)n2)cc1 | 12.7 µM
48 | COc1cc([N+](=O)[O-])ccc1N/C=C/C(=O)c1cccs1 | > 38 µM (inactive)
49 | Nc1nnnn1/N=C/c1cc(Cl)ccc1O | 37.5 µM
50 | COc1ccc(N(C(=O)CCl)C(C)(C(=O)Nc2c(C)cccc2C)c2ccccn2)cc1 (configuration not stated) | > 38 µM (inactive)

Row | SMILES | AC50
51 | COc1cccc(/C(O)=C/c2nc3ccc(C(=O)NCCc4ccc(Cl)cc4)cc3[nH]c2=O)c1 | 23.3 µM
52 | COc1ccc(N2C(=O)NC(=O)/C(=C\c3ccc([N+](=O)[O-])s3)C2=O)cc1 | 18.7 µM
53 | O=C(N/N=C/c1c(O)n(Cc2ccccc2)c(=O)[nH]c1=O)c1ccccc1O | 10.5 µM
54 | CCOC(=O)C1=C(C)N=c2s/c(=C\c3cccn3C)c(=O)n2C1c1cccc(OC)c1OC (configuration not stated) | 13.8 µM
55 | N#CC1(C#N)C(c2ccccc2)OC23CCCCC2C1(C#N)C(=N)O3 (configuration not stated) | > 38 µM (inactive)
56 | COc1ccc(OC)c(N2C(=O)NC(=O)/C(=C\c3ccc([N+](=O)[O-])s3)C2=O)c1 | 16.1 µM
57 | CCc1cc[n+](-c2nc3ccccc3nc2[N-]S(=O)(=O)c2ccc(Br)s2)cc1 | 4.86 µM
58 | O=C(/C=C/Nc1ccc(S(=O)(=O)Nc2cnc3ccccc3n2)cc1)c1ccccc1 | > 38 µM (inactive)
59 | CCOC(=O)c1c(-c2ccccc2)oc2ccc(OCC(=O)NNC(=O)CCC(=O)O)cc12 | 15.1 µM
60 | COCCCNC(=O)c1ccc2c3c(onc13)-c1ccccc1C2=O | < 0.3 µM
61 | Oc1[nH]c2ccccc2c1N=NC(=S)N1CCOCC1 | 6.32 µM
62 | CCOC(=O)C1CCN(c2nc3ccccc3nc2C(C#N)C(=O)OC(C)C)CC1 (configuration not stated) | > 38 µM (inactive)
63 | CC1=Nc2cccc3cccc(c23)N1C | > 38 µM (inactive)
64 | O=[As](O)(O)c1ccc(N=Nc2ccc(O)cc2)cc1 | 37.5 µM
65 | O=C(Nc1ccccc1F)C(=Cc1sc(N2CCOCC2)nc1-c1ccccc1)C(=O)Nc1ccccc1F | 29.4 µM
66 | CC1CC(=O)c2c(cc3c(-c4c(O)cc(O)c5c(O)c6c(cc45)OC(C)CC6=O)c(O)cc(O)c3c2O)O1 (configuration not stated) | 2.07 µM
67 | Cc1ccccc1C(=O)N=c1ccn(-c2nc3ccccc3nc2NS(=O)(=O)c2ccccc2)cc1 | > 38 µM (inactive)
68 | Cc1cc(/C=C2\C(=O)NC(=O)N(Cc3ccccc3)C2=O)c(C)n1-c1ccc(Cl)c(C(=O)O)c1 | 33.2 µM
69 | COc1ccc(N=Nc2nc3ccc(Br)cc3n2C)cc1 | 34.9 µM
70 | Cc1cc(/C=C2\SC(=S)N(Cc3ccco3)C2=O)c(C)n1-c1ccccc1 | 16.6 µM
71 | Cc1cc2ccccc2n1CCNC(=O)c1ccc(Br)o1 | > 38 µM (inactive)
72 | CC1(OC(=O)C2CCCC2)C(=O)C=C2C=C(c3ccc(C#N)cc3)OC=C2C1=O (configuration not stated) | 9.38 µM
73 | Cc1cccc(C)c1NC(=O)/C(C#N)=C/c1ccc(-c2ccc(C(=O)O)cc2)o1 | > 38 µM (inactive)
74 | CCc1nnc(NC(=O)CCN2C(=O)/C(=C/c3cc(OC)c(OC)c(OC)c3)SC2=S)s1 | > 38 µM (inactive)
75 | CC1=NN2C(=N)/C(=C\c3ccc(SCc4ccccc4)o3)C(=O)N=C2S1 | 38 µM

Row | SMILES | AC50
76 | Cc1cc(=O)[nH]c(SCc2nc3ccc([N+](=O)[O-])cc3[nH]2)n1 | 16.6 µM
77 | O=C(Nc1ccc2nc(-c3ccco3)c(-c3ccco3)nc2c1)N1CCN(c2ccccn2)CC1 | > 38 µM (inactive)
78 | COc1ccc(CC(=O)NNC(=O)c2cnccn2)cc1 | 15.5 µM
79 | Cc1ccc(N=C2NC(=O)/C(=C\c3ccc(C)s3)S2)cc1 | > 38 µM (inactive)
80 | CN(C)c1ccc(C(c2nnnn2CCOC(=O)Nc2ccc(Cl)cc2)N2CCOCC2)cc1 (configuration not stated) | > 38 µM (inactive)
81 | Cc1cccc(-n2c(O)c(/C=N/Nc3nc4c(c(=O)n(C)c(=O)n4C)n3C)c(=O)[nH]c2=S)c1 | 7.45 µM
82 | O=C(NNC(=O)c1ccccc1O)c1ccc(S(=O)(=O)Nc2ccccc2)cc1 | 11.4 µM
83 | Cc1ccc(C(=O)N/C(=C\c2ccc(-c3ccc([N+](=O)[O-])cc3)o2)C(=O)NC2CCS(=O)(=O)C2)cc1 (configuration not stated) | > 38 µM (inactive)
84 | Oc1ccc(N=Nc2nccs2)c(O)c1 | 38.3 µM
85 | CCOc1cc(/C=C2\C(=O)N(c3cccc(C(=O)O)c3)N=C2C(F)(F)F)ccc1OCC(=O)Nc1ccccc1OC | 8.68 µM
86 | COc1ccccc1C(=O)Oc1ccc2c(c1)O/C(=C\c1ccncc1)C2=O | 10.8 µM
87 | COc1cc(OC)c(OC)cc1/C=C1/Cc2ccccc2C1=O | 8.04 µM
88 | O=C(CN1C(=O)/C(=C/c2ccco2)SC1=S)Nc1ccc(C(=O)O)c(O)c1 | 24.5 µM
89 | O=C(O)c1cc(-c2ccc(/C=c3\sc4nc5ccc(Br)cc5n4c3=O)o2)ccc1Cl | 5.15 µM
90 | Cn1c(=O)c2[nH]c(-c3ccccc3)c(O)c2n(C)c1=O | 0.895 µM
91 | CCCCN(C(=O)C1=COCCO1)c1c(N)n(Cc2ccccc2)c(=O)[nH]c1=O | > 38 µM (inactive)
92 | O=C1CCCC(O)=C1N=Nc1ccc(C(=O)O)cc1 | 32.9 µM
93 | COC(=O)/C=C1/S/C(=N/NC(=O)c2ccc(Cl)cc2Cl)NC1=O | 22.4 µM
94 | O=C(Nc1ccc(S(=O)(=O)Nc2nccs2)cc1)c1ccc(N2C(=O)c3ccccc3C2=O)cc1 | > 38 µM (inactive)
95 | O=c1[nH][nH]c2cc(=O)n(-c3cccc(C(F)(F)F)c3)nc12 | 20.3 µM
96 | CN(C)C1C(=O)C(C(N)=O)=C(O)C2(O)C(=O)C3=C(O)c4c(O)cccc4C(C)(O)C3CC12 (configuration not stated) | > 38 µM (inactive)
97 | O=C1NC(=O)N(c2ccccc2)C(=O)/C1=C/c1ccc([N+](=O)[O-])s1 | 23.7 µM
